Measurements published in patent publication US9670217B2, “Process for preparing chlorins and their pharmaceutical uses” (UNIVERSIDADE DE COIMBRA, priority 2008, dated 2017).

Columns and labels:
S91I3 (mouse melanoma) = experiment: Cell photosensitization, 748 nm diode laser, resazurin; assay type: cell-based; settings: 6 J/cm^2 diode laser irradiation at 28.5 mW
Experimental: The cell lines employed in laser irradiation were the HT-29 (human colon carcinoma), PC-3 (human prostate carcinoma), SW2 (human small cell lung cancer), A-549 (human non-small cell lung cancer). S91/I3 (mouse melanoma) and CT26 (mouse colon carcinoma). They were used both for cytotoxicity and photocytotoxicity experiments. PC-3. SW2 and S91113 cells were cultured in RPMI-1640 medium (Sigma-Aldrich, Steinheim, Germany) and HT-29, A-549 and CT26 cells were cultured in Dulbecco's Modified Eagle Medium (DMEM) (Cambrex Bioscience, Verviers, Belgium). Both cell culture mediums were supplemented with 10% heat-inactivated Fetal Bovine Serum (FBS) (Cambrex Bioscience, Verviers, Belgium) and 100 IU/ml penicillin-100 μg/ml streptomycin (Cambrex Bioscience, Verviers, Belgium). […] For the in vitro studies, cells at 85-90% confluence, were detached with Trypsin-Versene-EDTA solution (Cambrex Bioscience, Verviers, Belgium), counted and seeded in flat-bottom 96-well plates at the desired densities.
Cell viability assay. In the end of the experiences cell viability was evaluated by the resazurin reduction assay. […] The absorbance values of each well were measured at 540 nm and 630 nm using a microplate reader Multiskan Ex (Thermo-Electron Corporation, Vartaa, Finland).
Cell photosensitization. […] Cell viability was evaluated approximately 24 h after the irradiation.

S91 Cloudman melanoma = experiment: PDT of implanted S91 tumors; assay type: in vivo, DBA/2 mice
Source text: The mice used in the present study were form two sources. Dark toxicity, biodistribution and farmacokinetic studies employed DBA/2 mice, weighing 20-30 g, from the animal breeding facility at the Faculty of Biochemistry, Biophysics and Biotechnology, Jagiellonian University, Krakow. The mice were kept on a standard laboratory diet with free access to drinking water. The use of such animals for experimental purposes was approved by the Jagiellonian University Committee for Ethics of Experiments on Animals (decision No. 384/99). Such mice were also employed in PDT.
The tumors grew to reach 5 mm in about one week after the implantation. No spontaneous necrosis was observed. The treatment was initiated when the tumor attained 5 mm in diameter in each animal. The day the tumors reached the treatment size, the mice were injected via i.p. with a dose of 10 mg/kg of Luzitin-C12Et in PEG400. At 24 h post-injection, the mice were anesthetized with ketamine and xylazine, and restrained in plastic holders, then treated with different light doses with the Hamamatsu 748 nm diode laser described before. […] The mice were checked daily, and the size of the tumors was measured and recorded.

S91/I3 (mouse melanoma) = experiment: Cytotoxicity in the dark, resazurin assay; assay type: cell-based; settings: S91I3, incubation 40 h in the dark; read-out: IC50 dark toxicity
Experimental: (§1) The cell lines employed in laser irradiation were the HT-29 (human colon carcinoma), PC-3 (human prostate carcinoma), SW2 (human small cell lung cancer), A-549 (human non-small cell lung cancer). S91/I3 (mouse melanoma) and CT26 (mouse colon carcinoma). They were used both for cytotoxicity and photocytotoxicity experiments. PC-3. SW2 and S91113 cells were cultured in RPMI-1640 medium (Sigma-Aldrich, Steinheim, Germany) and HT-29, A-549 and CT26 cells were cultured in Dulbecco's Modified Eagle Medium (DMEM) (Cambrex Bioscience, Verviers, Belgium). Both cell culture mediums were supplemented with 10% heat-inactivated Fetal Bovine Serum (FBS) (Cambrex Bioscience, Verviers, Belgium) and 100 IU/ml penicillin-100 μg/ml streptomycin (Cambrex Bioscience, Verviers, Belgium). The DMEM medium used for CT26 cells was also supplemented with HEPES 10 mM. Cell lines were maintained in 75 cm^2 flasks (Orange Scientific, Braine-l'Alleud, Belgium) at 37° C. in humidified atmosphere with 5% CO2. For the in vitro studies, cells at 85-90% confluence, were detached with Trypsin-Versene-EDTA solution (Cambrex Bioscience, Verviers, Belgium), counted and seeded in flat-bottom 96-well plates at the desired densities.
(§2) Cell viability assay. In the end of the experiences cell viability was evaluated by the resazurin reduction assay. Briefly, resazurin (Sigma-Aldrich, Steinhelm, Germany) stock solution (0.1 mg/ml in phosphate buffer saline (PBS) pH 7.4) was diluted 10% in culture medium without FBS or antibiotics and 200 μl were added to the cells in each well. Plates were incubated for 3-4 h at 37° C. The absorbance values of each well were measured at 540 nm and 630 nm using a microplate reader Multiskan Ex (Thermo-Electron Corporation, Vartaa, Finland).
(§3) Cytotoxicity. Cells were seeded in flat-bottom 96-well plates (Orange Scientific, Braine-l'Alleud, Belgium) in 100 μl of culture medium and were allowed to adhere overnight. The photosensitizer was added to the cells (diluted in 100 μl culture medium) at final concentrations between 0.01 and 1 mM. Each concentration was tested in quadruplicate. The incubation periods in the dark at 37° C. were two times the doubling time for the tested cell line. After the incubation the cell viability was evaluated. In parallel control experiments, cells were incubated without the drug. Cytotoxicity was quantified by expressing cell death relatively to untreated cells (% of control cells). The results were plotted as dose response curves (% of cell death as a function of the concentration of the DRUG), which allow the determination of the concentration that inhibit 50% of cell growth (IC50).

[1] = system: SW2 (human small cell lung cancer); experiment: Cytotoxicity in the dark, resazurin assay; assay type: cell-based; settings: SW2, incubation 48 h in the dark; read-out: IC50 dark toxicity
Experimental: as §1, §2, §3

[2] = Bacteriochlorin pharmacokinetics and biodistribution following ip administration, S91 tumor-bearing mice; settings: 10 mg/kg ip
[3] = system: CT26 mouse colon carcinoma; experiment: PDT of implanted CT26 tumors; assay type: in vivo, Balb/C mice; settings: 10 mg/kg i.p. in PEG400, 24 h post-injection, 748 nm, 132 J/cm^2
Source text: The other mice were Balb/C weighing 20-25 g, from the animal breeding facility of Charles River Laboratories (Barcelona). The mice were kept on a standard laboratory diet with free access to drinking water. The use of such animals for experimental purposes was approved by the Board of Centro de Neurociências e Biologia Celular (Coimbra).
The tumors grew to reach 5 mm in diameter in about one week after the implantation. No spontaneous necrosis was observed. The treatment was initiated when the tumor attained 5 mm in diameter in each animal. The day the tumors reached the treatment size, the mice were injected via i.p. with a dose of 10 mg/kg of Luzitin-FMet in PEG400. At 24 h post-injection, four mice were anesthetized with ketamine and xylazine, and treated with the Hamamatsu 748 nm diode laser described before, at a fluence rate of 100 mW/cm^2 for 22 minutes (total fluence of 132 J/cm^2). Four other mice were not treated and served as control. The mice were checked daily, the tumors were measured using two orthogonal measurements L and W (perpendicular to L) and the volumes were calculated using the formula V=L×W^2/2 and recorded.

[4] = system: HT-29 (human colon carcinoma); experiment: Cytotoxicity in the dark, resazurin assay; assay type: cell-based; settings: HT-29, dark
Experimental: as §1, §2, §3

O=S(=O)(O)c1ccc(Cl)c(-c2c3nc(c(-c4c(Cl)ccc(S(=O)(=O)O)c4Cl)c4ccc([nH]4)c(-c4c(Cl)ccc(S(=O)(=O)O)c4Cl)c4nc(c(-c5c(Cl)ccc(S(=O)(=O)O)c5Cl)c5ccc2[nH]5)CC4)CC3)c1Cl [Luzitin-Cl2, 5,10,15,20-tetrakis(2,6-dichloro-3-sulfonylphenyl)bacteriochlorin]
concentration of sensitizer required to kill 90% of cells (LD90) (S91I3 (mouse melanoma)): 40 µM

CCNS(=O)(=O)c1ccc(Cl)c(-c2c3nc(c(-c4c(Cl)ccc(S(=O)(=O)NCC)c4Cl)c4ccc([nH]4)c(-c4c(Cl)ccc(S(=O)(=O)NCC)c4Cl)c4nc(c(-c5c(Cl)ccc(S(=O)(=O)NCC)c5Cl)c5ccc2[nH]5)CC4)CC3)c1Cl [Luzitin-Cl2Et, 5,10,15,20-tetrakis(2,6-dichloro-3-N-ethylsulfamoylphenyl)bacteriochlorin]
tumor response after PDT (S91 Cloudman melanoma; 10 mg/kg i.p. in PEG400, 24 h post-injection, 748 nm laser, single session): long-lasting tumor regression | necrosis of irradiated tumor area (S91 Cloudman melanoma; within minutes of the irradiation): evident signals of necroses

O=S(=O)(O)c1ccc(Cl)c(-c2c3nc(c(-c4cc(S(=O)(=O)O)ccc4Cl)c4ccc([nH]4)c(-c4cc(S(=O)(=O)O)ccc4Cl)c4nc(c(-c5cc(S(=O)(=O)O)ccc5Cl)c5ccc2[nH]5)CC4)CC3)c1 [Luzitin-Cl, 5,10,15,20-tetrakis(2-chloro-5-sulfonylphenyl)bacteriochlorin]
IC50 (S91/I3 (mouse melanoma)): 500 µM | IC50 [1]: 400 µM | accumulation in the skin [2]: negligible | time to clearance from most of the organs [2]: 24 h | concentration in tumor relative to muscle ([2]; one day after administration): 3 times

CNS(=O)(=O)c1ccc(F)c(-c2c3nc(c(-c4cc(S(=O)(=O)NC)ccc4F)c4ccc([nH]4)c(-c4cc(S(=O)(=O)NC)ccc4F)c4nc(c(-c5cc(S(=O)(=O)NC)ccc5F)c5ccc2[nH]5)CC4)CC3)c1 [Luzitin-FMet, 5,10,15,20-tetrakis(2-fluoro-5-N-methylsulfamoylphenyl)bacteriochlorin]
tumor size after PDT vs non-irradiated controls [3]: smaller than the average size of the control animals and in one case the tumor completely disappeared | highest concentration that causes relatively no effect in viability in the dark [4]: 50 µM
